Experimental data as given in patent US9687539B2, “CD4+ T survivin epitopes and uses thereof” (Commissariat a I'Energie Atomique, priority 2005, dated 2017).
Substitutions are numbered along the chain they refer to. pIC50: −log10 of the molar value. No end group written: not given here.

How the values were obtained:
HLA-DR13 (DRB1*1301) = HLA-DR13 (DRB1*1301) (Homo sapiens, UniProt P01903+P01911, A100E/A169T/K41T/L162R/M171V/P40S/Q125H/Q178H/Q39Y/Q99D/R42S/S66N/T262R/W38E/Y61H); experiment: Competitive HLA II/peptide binding assay, HLA-DR13; settings: competition with biotinylated tracer; 3 independent experiments; read-out: Binding activity DR13 (IC50)
[1] = test system: 12 predominant HLA II molecules; experiment: Binding to the 12 predominant HLA II molecules, summary; design: species or system human; settings: for No. of molecules fixed: number of the 12 predominant HLA II molecules bound (IC50 < 1000 nM)
Description: The assays for binding to HLA II molecules are competitive binding assays with immunoenzymatic visualization, as described in U.S. Pat. No. 6,649,166, Texier et al., J. Immunol., 2000, 164, 3177-3184 and Texier et al., Eur. J. Immunol., 2001, 31, 1837-1846, for the HLA-DR molecules, and in PCT international application WO 03/040299 and Castelli et al., J. Immunol., 2002, 169, 6928-6934, for the HLA-DP4 molecule. The use of these assays for measuring the binding activity of peptides derived from various antigens is illustrated in U.S. Pat. No. 6,649,166 and PCT international applications WO 02/090382, WO 03/040299 and WO 2004/014936.
The sensitivity of each assay is reflected by the IC50 values observed with the nonbiotinylated peptides which correspond to the tracers; the IC50 values of the tracers vary by a factor of less than three.

HLA-DRB4 (DRB4*0101) = HLA-DRB4 (DRB4*0101) (Homo sapiens, UniProt P01903+P13762, G164S); experiment: Competitive HLA II/peptide binding assay, HLA-DRB4; settings: competition with biotinylated tracer; 3 independent experiments
HLA-DR15 (DRB1*1501) = HLA-DR15 (DRB1*1501) (Homo sapiens, UniProt P01903+P01911); experiment: Competitive HLA II/peptide binding assay, HLA-DR15; settings: competition with biotinylated tracer; 3 independent experiments
HLA-DP401 (DP*0401) = target: T1, HLA-DP401 (DP*0401) (Homo sapiens, UniProt P04440+P20036); experiment: biochemical; settings: competition with biotinylated tracer; 3 independent experiments; read-out: Binding activity DP401 (IC50)
T1 sequence (P04440 30-258): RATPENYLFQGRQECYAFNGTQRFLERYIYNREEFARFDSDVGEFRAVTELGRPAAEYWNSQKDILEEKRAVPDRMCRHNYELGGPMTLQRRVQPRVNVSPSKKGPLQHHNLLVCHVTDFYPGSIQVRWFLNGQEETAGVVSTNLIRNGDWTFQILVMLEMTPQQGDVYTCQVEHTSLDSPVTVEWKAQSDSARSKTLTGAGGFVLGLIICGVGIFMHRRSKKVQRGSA
T1 sequence (P20036 29-260): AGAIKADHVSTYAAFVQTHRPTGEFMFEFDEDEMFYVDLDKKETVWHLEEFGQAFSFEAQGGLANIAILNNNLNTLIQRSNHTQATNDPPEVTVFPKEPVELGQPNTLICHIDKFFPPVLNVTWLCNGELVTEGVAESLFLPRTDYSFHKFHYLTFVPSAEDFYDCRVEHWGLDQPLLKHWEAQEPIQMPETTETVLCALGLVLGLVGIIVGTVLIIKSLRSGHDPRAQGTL

HLA-DP402 (DP*0402) = target: T2, HLA-DP402 (DP*0402) (Homo sapiens, UniProt P04440+P20036, A65V/A84D/A85E/L207M); experiment: biochemical; settings: competition with biotinylated tracer; 3 independent experiments; read-out: Binding activity DP402 (IC50)
T2 sequence (P04440 30-258 A65V/A84D/A85E): T1 sequence (P04440 30-258) with A36V, A55D, A56E
T2 sequence (P20036 29-260): T1 sequence (P20036 29-260)

HLA-DR3 (DRB1*0301) = HLA-DR3 (DRB1*0301) (Homo sapiens, UniProt P01903+P01911, A100K/A102G/A103R/A169T/F55Y/I96L/K41T/L162R/M171V/P40S/Q125H/Q178H/Q39Y/R42S/S66N/T106N/T262R/W38E/Y61H); experiment: biochemical; settings: competition with biotinylated tracer; 3 independent experiments; read-out: Binding activity DR3 (IC50)
HLA-DRB3 (DRB3*0101) = HLA-DRB3 (DRB3*0101) (Homo sapiens, UniProt P01903+P79483); experiment: Competitive HLA II/peptide binding assay, HLA-DRB3; settings: competition with biotinylated tracer; 3 independent experiments
HLA-DRB5 (DRB5*0101) = HLA-DRB5 (DRB5*0101) (Homo sapiens, UniProt P01903+Q30154); experiment: Competitive HLA II/peptide binding assay, HLA-DRB5; settings: competition with biotinylated tracer; 3 independent experiments
HLA-DR4 (DRB1*0401) = HLA-DR4 (DRB1*0401) (Homo sapiens, UniProt P01903+P01911, A100K/A169T/F76Y/I96L/K127E/L162R/M171V/N62H/P40V/Q125Y/R42H/S133A/S149N/S66Y/V115G/V209L/W38E); experiment: Competitive HLA II/peptide binding assay, HLA-DR4; settings: competition with biotinylated tracer; 3 independent experiments
HLA-DR7 (DRB1*0701) = HLA-DR7 (DRB1*0701) (Homo sapiens, UniProt P01903+P01911, A100R/A102G/A103Q/D57E/D86V/E43K/F76Y/K127E/L162R/M171V/P40G/Q125H/Q99D/R33Q/R42Y/R54Q/S133A/S66F/T210M/V115G/Y107V/Y59L/Y89S); experiment: biochemical; settings: competition with biotinylated tracer; 3 independent experiments; read-out: Binding activity DR7 (IC50)
HLA-DR11 (DRB1*1101) = HLA-DR11 (DRB1*1101) (Homo sapiens, UniProt P01903+P01911, A100R/A169T/A87E/I96F/K41T/L162R/M171V/P40S/Q125H/Q178H/Q39Y/Q99D/R42S/S66Y/T262R/V115G/W38E); experiment: biochemical; settings: competition with biotinylated tracer; 3 independent experiments; read-out: Binding activity DR11 (IC50)
HLA-DR1 (DRB1*0101) = HLA-DR1 (DRB1*0101) (Homo sapiens, UniProt P01903+P01911, A100R/D57E/F55L/F60I/F76Y/I96L/L162R/M171V/P40L/Q125E/R42F/V115G/Y59C); experiment: Competitive HLA II/peptide binding assay, HLA-DR1; settings: competition with biotinylated tracer; 3 independent experiments

Row | Compound | pIC50 (HLA-DR13 (DRB1*1301)) | No. of molecules fixed [1] | pIC50 (HLA-DRB4 (DRB4*0101)) | pIC50 (HLA-DR15 (DRB1*1501)) | pIC50 (HLA-DP401 (DP*0401)) | pIC50 (HLA-DP402 (DP*0402)) | pIC50 (HLA-DR3 (DRB1*0301)) | pIC50 (HLA-DRB3 (DRB3*0101)) | pIC50 (HLA-DRB5 (DRB5*0101)) | Binding specificity for HLA II molecules [1] | pIC50 (HLA-DR4 (DRB1*0401)) | pIC50 (HLA-DR7 (DRB1*0701)) | pIC50 (HLA-DR11 (DRB1*1101)) | pIC50 (HLA-DR1 (DRB1*0101))
1 | FCFKELEGWEPDDDP [59-73, F C F K E L E G W E P D D D P] | < 4.00 | 0 | < 4.00 | 5.10 | < 4.00 | < 4.00 | < 4.00 | < 4.00 | 4.35 |  |  |  |  | 
2 | MGAPTLPPAWQPFLK [1-15, M G A P T L P P A W Q P F L K] | < 4.00 | 1 | < 4.00 |  |  |  | < 4.00 | < 4.00 | 5.10 | bind only to the HLA-DR11 molecule | < 4.00 | < 4.00 |  | 
3 | GEFLKLDRERAKNKI [99-113, G E F L K L D R E R A K N K I] |  | 3 | 4.66 | 5.92 |  | < 4.00 |  | < 4.00 | 7.66 |  |  |  | 7.40 | 
4 | KQFEELTLGEFLKLD [91-105, K Q F E E L T L G E F L K L D] | < 4.00 | 5 | < 4.00 |  |  |  | < 4.00 | 4.52 |  | high affinity for the DR1, DR7, DRB5, DP401 and DP402 molecules |  |  | 5.63 | 
5 | CC(C)C[C@H](NC(=O)[C@H](Cc1ccccc1)NC(=O)[C@@H]1CCCN1C(=O)[C@H](CCC(N)=O)NC(=O)[C@H](Cc1c[nH]c2ccccc12)NC(=O)[C@H](C)NC(=O)[C@@H]1CCCN1C(=O)[C@@H]1CCCN1C(=O)[C@H](CC(C)C)NC(=O)[C@@H](NC(=O)[C@@H]1CCCN1)[C@@H](C)O)C(=O)N[C@@H](CCCCN)C(=O)N[C@@H](CC(=O)O)C(=O)N[C@@H](Cc1c[nH]cn1)C(=O)N[C@@H](CCCNC(=N)N)C(=O)O [4-18, P T L P P A W Q P F L K D H R] |  | 1 | < 4.00 | < 4.00 |  |  | < 4.00 | < 4.00 | 5.26 | bind only to the HLA-DR11 molecule | < 4.00 | < 4.00 |  | 4.35
6 | CC[C@H](C)[C@H](NC(=O)[C@H](CCCCN)NC(=O)[C@@H](N)CC(N)=O)C(=O)N[C@@H](C)C(=O)N[C@@H](CCCCN)C(=O)N[C@@H](CCC(=O)O)C(=O)N[C@H](C(=O)N[C@@H](CC(N)=O)C(=O)N[C@@H](CC(N)=O)C(=O)N[C@@H](CCCCN)C(=O)N[C@@H](CCCCN)C(=O)N[C@@H](CCCCN)C(=O)N[C@@H](CCC(=O)O)C(=O)N[C@@H](Cc1ccccc1)C(=O)N[C@@H](CCC(=O)O)C(=O)O)[C@@H](C)O [111-125, N K I A K E T N N K K K E F E] |  | 1 |  |  | < 4.00 | < 4.00 |  |  |  |  |  |  |  | 
7 | ERMAEAGFIHCPTEN [36-50, E R M A E A G F I H C P T E N] | < 4.00 | 0 |  | < 4.00 |  |  | < 4.00 | < 4.00 |  |  | 4.77 | 4.77 |  | 
8 | AGFIHCPTENEPDLA [peptide 41-55, A G F I H C P T E N E P D L A] | < 4.00 | 1 |  |  | < 4.00 | < 4.00 | < 4.00 |  |  | binds only to the HLA-DRB4 molecule | 5.30 |  |  | 
9 | LKLDRERAKNKIAKE [102-116, L K L D R E R A K N K I A K E] | < 4.00 | 1 | < 4.00 | < 4.00 | < 4.00 | < 4.00 | < 4.00 | < 4.00 | 7.74 |  | < 4.00 |  |  | 
10 | KEFEETAKKVRRAIE [122-136, K E F E E T A K K V R R A I E] |  | 3 | < 4.00 | 5.92 | < 4.00 | < 4.00 |  | < 4.00 |  |  | < 4.00 | 4.70 |  | 
11 | DPIEEHKKHSSGCAF [72-86, D P I E E H K K H S S G C A F] |  | 0 | < 4.00 | < 4.00 | < 4.00 | < 4.00 | < 4.00 | < 4.00 |  |  | < 4.00 | < 4.00 | < 4.00 | 
